Laboratory results reported in US10376520B2, “Methods for the treatment of cardiovascular disorders” (Galapagos NV, priority 2015, dated 2019).

Test system: RA patients
Assay: Total cholesterol determination, Study 2 (RA patients, monotherapy with Compound 1)
Format: in vivo, human
Description: Randomized, double-blind, placebo-controlled, multicenter, phase IIb dose finding study of Compound 1 (dosed as a [Compound 1:HCl:3H2O]) administered for 24 weeks as monotherapy to subjects with moderately to severely active rheumatoid arthritis who have an inadequate response to methotrexate alone
Double-blind, placebo-controlled, monotherapy study in subjects with moderately to severely active RA who have an inadequate response to methotrexate (MTX) (oral or parenteral).
280 subjects randomized to one of 3 doses of Compound 1 (dosed as a [Compound 1:HCl:3H2O]) or to placebo, given once daily (q.d.).
Twelve weeks of treatment with Compound 1 (dosed as a [Compound 1:HCl:3H2O]) at 50 mg, 100 mg, or 200 mg q.d.; or placebo. At Week 12, all subjects on placebo and the subjects on the 50 mg dose who have not achieved 20% improvement in swollen joint count (SJC66) and tender joint count (TJC68) will be assigned to 100 mg q.d. in a blinded fashion and will continue treatment until Week 24. Subjects in the other groups will maintain their randomized treatment until Week 24.
This method is based on the determination of Δ^4 cholestenone after enzymatic cleavage of the cholesterol ester by cholesterol esterase, conversion of cholesterol by cholesterol oxidase, and subsequent measurement by the Trinder reaction of the hydrogen peroxide formed (Allain et al., 1974).
Cholesterol esters are cleaved by the action of cholesterol esterase to yield free cholesterol and fatty acids. Cholesterol oxidase then catalyzes the oxidation of cholesterol to cholest-4-en-3-one and hydrogen peroxide. In the presence of peroxidase, the hydrogen peroxide formed effects the oxidative coupling of phenol and 4-aminophenazone to form a red quinone-imine dye. The color intensity of the dye formed is directly proportional to the cholesterol concentration. It is determined by measuring the increase in absorbance.
Human serum and plasma samples cholesterol determination was done on a Roche/Hitachi Cobas c 701/702 system which automatically calculate the analyte concentration of each sample.

[1] = placebo switching to 100 mg q.d. at week 12, week 16
[2] = placebo switching to 100 mg q.d. at week 12, week 20
[3] = placebo switching to 100 mg q.d. at week 12, week 24

`O=C(Nc1nc2cccc(-c3ccc(CN4CCS(=O)(=O)CC4)cc3)n2n1)C1CC1` [Compound 1, cyclopropanecarboxylic acid {5-[4-(1,1-dioxo-thiomorpholin-4-ylmethyl)-phenyl]-[1,2,4]triazolo[1,5-a]pyridin-2yl}-amide] was tested, and the “[total cholesterol] Mean percentage CFB - 24 weeks results” value (200 mg q.d., week 4) was 9.35%, the “[total cholesterol] Median percentage CFB - 24 weeks results” value (200 mg q.d., week 4) was 7.39% and the “[total cholesterol] Mean percentage CFB - 12 weeks results” value (200 mg q.d., week 8) was 9.62%. The “[total cholesterol] Mean percentage CFB - 24 weeks results” value (200 mg q.d., week 8) was 9.62%, the “[total cholesterol] Median percentage CFB - 24 weeks results” value (200 mg q.d., week 8) was 9.01% and the “[total cholesterol] Mean percentage CFB - 12 weeks results” value (200 mg q.d., week 12) was 13.12%. For the same molecule, the “[total cholesterol] Mean percentage CFB - 24 weeks results” value (200 mg q.d., week 12) was 13.12%, the “[total cholesterol] Median percentage CFB - 24 weeks results” value (200 mg q.d., week 12) was 11.96% and the “[total cholesterol] Mean percentage CFB - 24 weeks results” value (200 mg q.d., week 16) was 11.40%. The “[total cholesterol] Median percentage CFB - 24 weeks results” value (200 mg q.d., week 16) was 8.36%, the “[total cholesterol] Mean percentage CFB - 24 weeks results” value (200 mg q.d., week 20) was 11.67% and the “[total cholesterol] Median percentage CFB - 24 weeks results” value (200 mg q.d., week 20) was 11.04%. For the same molecule, the “[total cholesterol] Mean percentage CFB - 24 weeks results” value (200 mg q.d., week 24) was 12.83%, the “[total cholesterol] Median percentage CFB - 24 weeks results” value (200 mg q.d., week 24) was 9.81% and the “[Total cholesterol] Median CFB” value (Study 2 12 weeks results, 50 mg q.d., week 1) was 0.100 mmol/L. The “[Total cholesterol] Median CFB” value (Study 2 12 weeks results, 50 mg q.d., week 2) was 0.000 mmol/L, the “[Total cholesterol] Median CFB” value (Study 2 12 weeks results, 50 mg q.d., week 4) was 0.000 mmol/L and the “[Total cholesterol] Median CFB” value (Study 2 12 weeks results, 50 mg q.d., week 8) was 0.250 mmol/L. The “[Total cholesterol] Median CFB” value (Study 2 12 weeks results, 50 mg q.d., week 12) was 0.140 mmol/L, the “[Total cholesterol] Median CFB” value (Study 2 12 weeks results, 100 mg q.d., week 1) was 0.100 mmol/L and the “[Total cholesterol] Median CFB” value (Study 2 12 weeks results, 100 mg q.d., week 2) was 0.140 mmol/L. The “[Total cholesterol] Median CFB” value (Study 2 12 weeks results, 100 mg q.d., week 4) was 0.265 mmol/L, the “[Total cholesterol] Median CFB” value (Study 2 12 weeks results, 100 mg q.d., week 8) was 0.250 mmol/L and the “[Total cholesterol] Median CFB” value (Study 2 12 weeks results, 100 mg q.d., week 12) was 0.350 mmol/L. For the same molecule, the “[Total cholesterol] Median CFB” value (Study 2 12 weeks results, 200 mg q.d., week 1) was 0.260 mmol/L, the “[Total cholesterol] Median CFB” value (Study 2 12 weeks results, 200 mg q.d., week 2) was 0.330 mmol/L and the “[Total cholesterol] Median CFB” value (Study 2 12 weeks results, 200 mg q.d., week 4) was 0.390 mmol/L. For the same molecule, the “[Total cholesterol] Median CFB” value (Study 2 12 weeks results, 200 mg q.d., week 8) was 0.400 mmol/L, the “[Total cholesterol] Median CFB” value (Study 2 12 weeks results, 200 mg q.d., week 12) was 0.560 mmol/L and the “[Total cholesterol] Median CFB” value (Study 2 24 weeks results, 50 mg q.d. non responders switching to 100 mg q.d. at week 12, week 1) was 0.150 mmol/L. The “[Total cholesterol] Median CFB” value (Study 2 24 weeks results, 50 mg q.d. non responders switching to 100 mg q.d. at week 12, week 2) was 0.100 mmol/L, the “[Total cholesterol] Median CFB” value (Study 2 24 weeks results, 50 mg q.d. non responders switching to 100 mg q.d. at week 12, week 4) was 0.350 mmol/L and the “[Total cholesterol] Median CFB” value (Study 2 24 weeks results, 50 mg q.d. non responders switching to 100 mg q.d. at week 12, week 8) was 0.140 mmol/L. The “[Total cholesterol] Median CFB” value (Study 2 24 weeks results, 50 mg q.d. non responders switching to 100 mg q.d. at week 12, week 12) was 0.330 mmol/L, the “[Total cholesterol] Median CFB” value (Study 2 24 weeks results, 50 mg q.d. non responders switching to 100 mg q.d. at week 12, week 16) was 0.540 mmol/L and the “[Total cholesterol] Median CFB” value (Study 2 24 weeks results, 50 mg q.d. non responders switching to 100 mg q.d. at week 12, week 20) was 0.280 mmol/L. For the same molecule, the “[Total cholesterol] Median CFB” value (Study 2 24 weeks results, 50 mg q.d. non responders switching to 100 mg q.d. at week 12, week 24) was 0.550 mmol/L, the “[Total cholesterol] Median CFB” value (Study 2 24 weeks results, 50 mg q.d. responders, week 1) was 0.020 mmol/L and the “[Total cholesterol] Median CFB” value (Study 2 24 weeks results, 50 mg q.d. responders, week 2) was -0.040 mmol/L. The “[Total cholesterol] Median CFB” value (Study 2 24 weeks results, 50 mg q.d. responders, week 4) was -0.030 mmol/L, the “[Total cholesterol] Median CFB” value (Study 2 24 weeks results, 50 mg q.d. responders, week 8) was 0.350 mmol/L and the “[Total cholesterol] Median CFB” value (Study 2 24 weeks results, 50 mg q.d. responders, week 12) was 0.060 mmol/L. The “[Total cholesterol] Median CFB” value (Study 2 24 weeks results, 50 mg q.d. responders, week 16) was 0.165 mmol/L, the “[Total cholesterol] Median CFB” value (Study 2 24 weeks results, 50 mg q.d. responders, week 20) was 0.215 mmol/L and the “[Total cholesterol] Median CFB” value (Study 2 24 weeks results, 50 mg q.d. responders, week 24) was 0.250 mmol/L. The “[Total cholesterol] Median CFB” value (Study 2 24 weeks results, 100 mg q.d., week 1) was 0.100 mmol/L, the “[Total cholesterol] Median CFB” value (Study 2 24 weeks results, 100 mg q.d., week 2) was 0.140 mmol/L and the “[Total cholesterol] Median CFB” value (Study 2 24 weeks results, 100 mg q.d., week 4) was 0.265 mmol/L. For the same molecule, the “[Total cholesterol] Median CFB” value (Study 2 24 weeks results, 100 mg q.d., week 8) was 0.250 mmol/L, the “[Total cholesterol] Median CFB” value (Study 2 24 weeks results, 100 mg q.d., week 12) was 0.350 mmol/L and the “[Total cholesterol] Median CFB” value (Study 2 24 weeks results, 100 mg q.d., week 16) was 0.400 mmol/L. For the same molecule, the “[Total cholesterol] Median CFB” value (Study 2 24 weeks results, 100 mg q.d., week 20) was 0.400 mmol/L, the “[Total cholesterol] Median CFB” value (Study 2 24 weeks results, 100 mg q.d., week 24) was 0.445 mmol/L and the “[Total cholesterol] Median CFB” value (Study 2 24 weeks results, 200 mg q.d., week 1) was 0.260 mmol/L. The “[Total cholesterol] Median CFB” value (Study 2 24 weeks results, 200 mg q.d., week 2) was 0.330 mmol/L, the “[Total cholesterol] Median CFB” value (Study 2 24 weeks results, 200 mg q.d., week 4) was 0.390 mmol/L and the “[Total cholesterol] Median CFB” value (Study 2 24 weeks results, 200 mg q.d., week 8) was 0.400 mmol/L. For the same molecule, the “[Total cholesterol] Median CFB” value (Study 2 24 weeks results, 200 mg q.d., week 12) was 0.560 mmol/L, the “[Total cholesterol] Median CFB” value (Study 2 24 weeks results, 200 mg q.d., week 16) was 0.410 mmol/L and the “[Total cholesterol] Median CFB” value (Study 2 24 weeks results, 200 mg q.d., week 20) was 0.490 mmol/L. For the same molecule, the “[Total cholesterol] Median CFB” value (Study 2 24 weeks results, 200 mg q.d., week 24) was 0.565 mmol/L, the “[Total cholesterol] Median CFB” value (Study 2 24 weeks results, placebo switching to 100 mg q.d. at week 12, week 16) was 0.200 mmol/L and the “[Total cholesterol] Median CFB” value (Study 2 24 weeks results, placebo switching to 100 mg q.d. at week 12, week 20) was 0.220 mmol/L. For the same molecule, the “[Total cholesterol] Median CFB” value (Study 2 24 weeks results, placebo switching to 100 mg q.d. at week 12, week 24) was 0.300 mmol/L, the “[total cholesterol] Mean percentage CFB - 24 weeks results” value [1] was 5.14% and the “[total cholesterol] Median percentage CFB - 24 weeks results” value [1] was 3.87%. For the same molecule, the “[total cholesterol] Mean percentage CFB - 24 weeks results” value [2] was 7.27%, the “[total cholesterol] Median percentage CFB - 24 weeks results” value [2] was 5.09% and the “[total cholesterol] Mean percentage CFB - 24 weeks results” value [3] was 6.98%. The “[total cholesterol] Median percentage CFB - 24 weeks results” value [3] was 5.57%.
